This is an account of results in patent US8859574B2 (IRM LLC, priority 2008, dated 2014).

In the test the target is T1, IGF-1R Ba/F3 (Homo sapiens, UniProt P08069).
T1 construct: fused on or other part: TEL- (or BCR-) IGF-1R in Ba/F3: the kinase part holds the site
The experiment in a line: Ba/F3 Cell Viability Inhibition Assay (IGF-1R Ba/F3). The class given is cell-based, murine. To be noted: Tel-TK transformed Ba/F3 cells, 48 hours, Britelite luminescence. Put shortly: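 A 48 h compound treatment at 37 °C (3750 cells/well) was followed by Britelite luminescence to measure viability. Cells were Ba/F3 pro-B cells, IL-3-independent via TEL-fused IGF-1R kinase transduction. A logistic fit gave IC50 as 50% viability relative to DMSO control.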

T1 sequence (P08069 999-1274 limits assumed): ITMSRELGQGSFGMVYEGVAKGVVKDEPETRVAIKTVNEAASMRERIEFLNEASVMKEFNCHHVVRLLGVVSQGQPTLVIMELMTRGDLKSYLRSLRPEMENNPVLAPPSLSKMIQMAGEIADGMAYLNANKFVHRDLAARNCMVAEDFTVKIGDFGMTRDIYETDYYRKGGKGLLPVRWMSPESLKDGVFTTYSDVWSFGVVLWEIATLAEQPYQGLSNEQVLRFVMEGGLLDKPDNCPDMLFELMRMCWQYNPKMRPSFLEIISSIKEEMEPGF

As for `Cc1cc(Nc2nc(Nc3cc(C)c(C4CCN(C(=O)[C@@H]5COCCN5C(C)C)CC4)cc3F)ncc2Cl)n[nH]1` [Compound 126, (S)-(4-(4-(5-chloro-4-(5-methyl-1H-pyrazol-3-ylamino)pyrimidin-2-ylamino)-5-fluoro-2-methylphenyl)piperidin-1-yl)(4-isopropylmorpholin-3-yl)methanone], the half-inhibitory concentration (IC50) was 29 nM.

Compound `Cc1cc(Nc2nc(Nc3cc(C)c(C4CCN(Cc5nc(C(C)C)no5)CC4)cc3C)ncc2Cl)n[nH]1` [Compound 260, 5-chloro-N2-(4-(1-((3-isopropyl-1,2,4-oxadiazol-5-yl)methyl)piperidin-4-yl)-2,5-dimethylphenyl)-N4-(5-methyl-1H-pyrazol-3-yl)pyrimidine-2,4-diamine] displayed an IC50 of 18 nM.

`CNC(=O)CN1CCCC(c2cc(C)c(Nc3ncc(Cl)c(Nc4cc(C)[nH]n4)n3)cc2C)C1` (centres unmarked) [Compound 44, 2-(3-(4-(5-chloro-4-(5-methyl-1H-pyrazol-3-ylamino)pyrimidin-2-ylamino)-2,5-dimethylphenyl)piperidin-1-yl)-N-methylacetamide] came in with an IC50 of 15 nM.

The compound `CCN1CCC(c2cc(C)c(Nc3ncc(Cl)c(Nc4cc(C5CC5)[nH]n4)n3)cc2C)CC1` [Compound 205, 5-chloro-N4-(5-cyclopropyl-1H-pyrazol-3-yl)-N2-(4-(1-ethylpiperidin-4-yl)-2,5-dimethylphenyl)pyrimidine-2,4-diamine] yielded a concentration for half-maximal inhibition (IC50) of 19 nM.

`Cc1cc(Nc2nc(Nc3cc(C)c(C4CCN(CCC(N)=O)CC4)cc3F)ncc2Cl)n[nH]1` [Compound 248, 3-(4-(4-(5-chloro-4-(5-methyl-1H-pyrazol-3-ylamino)pyrimidin-2-ylamino)-5-fluoro-2-methylphenyl)piperidin-1-yl)propanamide] displayed an IC50 of 140 nM.

For the compound `CCN1CCC(c2cc(F)c(Nc3ncc(Cl)c(Nc4cc(C)[nH]n4)n3)cc2C)CC1` [Compound 232, 5-chloro-N^2-(4-(1-ethylpiperidin-4-yl)-2-fluoro-5-methylphenyl)-N^4-(5-methyl-1H-pyrazol-3-yl)pyrimidine-2,4-diamine], the IC50 is 20 nM.

`CCc1cc(Nc2nc(Nc3cc(C)c(C4CCN(C5CS(=O)(=O)C5)CC4)cc3F)ncc2Cl)n[nH]1` [Compound 264, 5-Chloro-N2-{4-[1-(1,1-dioxo-1λ6-thietan-3-yl)-piperidin-4-yl]-2-fluoro-5-methyl-phenyl}-N4-(5-ethyl-1H-pyrazol-3-yl)-pyrimidine-2,4-diamine] displayed a concentration for half-maximal inhibition (IC50) of 21 nM.

Consider `Cc1cc(Nc2nc(Nc3cc(C)c(C4CCN(Cc5cncnc5)CC4)cc3F)ncc2Cl)n[nH]1` [Compound 314, 5-Chloro-N^2-(2-fluoro-5-methyl-4-(1-(pyrimidin-5-ylmethyl)piperidin-4-yl)phenyl)-N^4-(5-methyl-1H-pyrazol-3-yl)pyrimidine-2,4-diamine], for which the IC50 came to 37 nM.

For the compound `Cc1cc(Nc2nc(Nc3cc(C)c(C4CCCNC4)cc3C)ncc2Cl)n[nH]1` (centres unmarked) [Compound 15, 5-chloro-N2-(2,5-dimethyl-4-(piperidin-3-yl)phenyl)-N4-(5-methyl-1H-pyrazol-3-yl)pyrimidine-2,4-diamine], half-maximal inhibition (IC50) required 50 nM.

`Cc1cc(Nc2nc(Nc3cc(C)c(C4CCN(C(=O)C5(N(C)C)CC5)CC4)cc3F)ncc2Cl)n[nH]1` [Compound 94, (4-(4-(5-chloro-4-(5-methyl-1H-pyrazol-3-ylamino)pyrimidin-2-ylamino)-5-fluoro-2-methylphenyl)piperidin-1-yl)(1-(dimethylamino)cyclopropyl)methanone] returned an IC50 of 13 nM.

Compound `Cc1cc(Nc2nc(Nc3cc(C)c(C4CCOC(=O)C4)cc3C)ncc2Cl)n[nH]1` (centres unmarked) [Compound 152, 4-(4-(5-chloro-4-(5-methyl-1H-pyrazol-3-ylamino)pyrimidin-2-ylamino)-2,5-dimethylphenyl)tetrahydro-2H-pyran-2-one] displayed a half-maximal inhibitory concentration (IC50) of 155 nM.
